Measurements as given in ChEMBL document CHEMBL1129525 (J Med Chem, 1996).

Tests used:
Toxoplasma gondii = test: Inhibition of Toxoplasma gondii cell growth; format: functional, organism-based
Dihydrofolate reductase [1] = biological target: T1, Dihydrofolate reductase (Rattus norvegicus, UniProt Q920D2)
T1 sequence (Q920D2 whole entry): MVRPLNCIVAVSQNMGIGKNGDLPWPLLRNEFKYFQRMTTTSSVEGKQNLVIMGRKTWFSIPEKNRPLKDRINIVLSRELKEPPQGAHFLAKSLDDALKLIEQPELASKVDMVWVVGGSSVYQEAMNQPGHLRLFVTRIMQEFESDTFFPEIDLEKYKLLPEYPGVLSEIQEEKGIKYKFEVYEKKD
Description: Inhibitory activity against rat liver dihydrofolate reductase

Dihydrofolate reductase [2] = biological target: T2, Dihydrofolate reductase (Pneumocystis carinii, UniProt P16184)
T2 sequence (P16184 whole entry): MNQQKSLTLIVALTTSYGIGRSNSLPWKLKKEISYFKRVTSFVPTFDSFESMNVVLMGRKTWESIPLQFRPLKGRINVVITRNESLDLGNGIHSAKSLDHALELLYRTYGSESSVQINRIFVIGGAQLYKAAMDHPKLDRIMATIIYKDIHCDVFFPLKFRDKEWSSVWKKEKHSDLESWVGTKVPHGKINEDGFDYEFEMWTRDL
Description: Inhibitory activity against Pneumocystis carinii dihydrofolate reductase

[3] = biological target: T3, Bifunctional dihydrofolate reductase-thymidylate synthase (Toxoplasma gondii, UniProt Q07422)
T3 sequence (Q07422 whole entry): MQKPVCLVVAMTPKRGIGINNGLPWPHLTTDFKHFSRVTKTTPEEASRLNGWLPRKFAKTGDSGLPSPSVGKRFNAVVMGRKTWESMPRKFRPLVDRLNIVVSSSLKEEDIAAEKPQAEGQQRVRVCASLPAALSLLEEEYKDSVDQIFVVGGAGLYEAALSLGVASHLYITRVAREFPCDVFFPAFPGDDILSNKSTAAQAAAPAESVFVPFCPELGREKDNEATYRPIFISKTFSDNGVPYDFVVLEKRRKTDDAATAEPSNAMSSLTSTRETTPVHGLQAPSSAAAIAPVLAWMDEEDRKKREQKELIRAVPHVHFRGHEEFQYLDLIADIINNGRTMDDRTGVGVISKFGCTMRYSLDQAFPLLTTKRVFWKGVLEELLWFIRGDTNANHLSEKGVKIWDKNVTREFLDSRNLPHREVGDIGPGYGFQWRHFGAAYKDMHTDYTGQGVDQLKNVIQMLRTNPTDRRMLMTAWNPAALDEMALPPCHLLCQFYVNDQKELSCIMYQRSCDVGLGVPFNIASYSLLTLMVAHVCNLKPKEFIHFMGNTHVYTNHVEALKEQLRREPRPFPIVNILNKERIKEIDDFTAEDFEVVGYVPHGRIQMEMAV
Description: Inhibitory activity against Toxoplasma gondii dihydrofolate reductase

SMILES | IC50 (Toxoplasma gondii) [nM] | IC50 (Dihydrofolate reductase [1]) [nM] | IC50 (Dihydrofolate reductase [2]) [nM] | IC50 [3] [nM]
COc1ccc(C(F)(F)F)cc1NCc1cnc2nc(N)nc(N)c2n1 | 2000 | 21000 | 21000 | 10600
COc1cc(NCc2cnc3nc(N)nc(N)c3c2C)cc(OC)c1OC | 1000 | 5.4 |  | 
COc1ccc(C)c(NCc2cnc3nc(N)nc(N)c3n2)c1 | 1000 | > 3000 | > 3000 | 440
COc1ccc(N(C)Cc2cnc3nc(N)nc(N)c3c2C)c(OC)c1 | 300 | 230 | 350 | 53
Cc1c(CNc2cccc3ccccc23)cnc2nc(N)nc(N)c12 | 12 | 110 | 220 | 240
COc1ccc(SCc2cnc3nc(N)nc(N)c3c2C)cc1 | 300 |  | 560 | 
COc1cc(NCc2cnc3nc(N)nc(N)c3n2)cc(OC)c1 | 1000 | 880 | 960 | 110
COc1cc(NCc2cnc3nc(N)nc(N)c3c2C)cc(C(F)(F)F)c1 | 200 | 17 | 20 | 18
Cc1c(CSc2cccc(Cl)c2)cnc2nc(N)nc(N)c12 | 150 | 190 | 68 | 90
Cc1ccc(SCc2cnc3nc(N)nc(N)c3c2C)cc1 | 300 | 500 | 530 | 57
Nc1nc(N)c2nc(CNc3cccc4ccccc34)cnc2n1 | 250 | 1260 |  | 76
Nc1nc(N)c2nc(CCc3cccc4ccccc34)cnc2n1 | 1000 | 60000 |  | 820
COc1cccc(SCc2cnc3nc(N)nc(N)c3c2C)c1 | 200 | 600 | 340 | 110
Nc1nc(N)c2nc(CSc3ccccc3)cnc2n1 | 10000 |  | 9500 | 
COc1ccc(N(C)Cc2cnc3nc(N)nc(N)c3c2C)cc1OC | 150 | 5.2 | 29 | 2.9
COc1ccc(C)cc1NCc1cnc2nc(N)nc(N)c2c1C | 50 | 160 | 68 | 15
COc1ccc(NCc2cnc3nc(N)nc(N)c3c2C)c(OC)c1 | 200 | 61 | 91 | 10
COc1cccc(C)c1NCc1cnc2nc(N)nc(N)c2c1C | 300 | 320 | 1000 | 100
COc1ccc(C(F)(F)F)cc1NCc1cnc2nc(N)nc(N)c2c1C | 20 | 20 | 44 | 22
COc1ccc(OC)c(N(C)Cc2cnc3nc(N)nc(N)c3c2C)c1 | 200 | 460 | 700 | 28
Cc1c(CNc2cccc3c2CCCC3)cnc2nc(N)nc(N)c12 | 60 | 130 | 100 | 26
COc1ccc(NCc2cnc3nc(N)nc(N)c3c2C)cc1OC | 600 | 6.5 | 51 | 2.7
COc1ccc(OC)c(CCc2cnc3nc(N)nc(N)c3c2C)c1 | 100 | 770 | 340 | 7.9
Cc1cccc(SCc2cnc3nc(N)nc(N)c3n2)c1 | 4000 | 8480 | 21200 | 1800
COc1ccc(OC)c(CCc2cnc3nc(N)nc(N)c3n2)c1 | 5000 | 23200 | 11100 | 5400
Cc1c(CSc2ccccc2)cnc2nc(N)nc(N)c12 | 200 | 430 | 440 | 34
Nc1nc(N)c2nc(CSc3cccc(Cl)c3)cnc2n1 | > 10000 | 26600 | 42200 | 5700
COc1ccc(OC)c(Cc2cnc3nc(N)nc(N)c3c2C)c1 [PIRITREXIM] | 20 |  |  | 
CCc1nc(N)nc(N)c1-c1ccc(Cl)cc1 [PYRIMETHAMINE] | 400 |  |  | 
